Entries after “also recorded” stand apart in the source; their conditions may differ. Each block holds one compound with its values, some of them ahead of it.
Columns and labels:
Log D determination = type: physicochemical; settings: octanol / phosphate buffer pH 7.4
Protocol: An aliquot (˜50 μL) of the formulated radiotracer was added to a test tube containing 2.5 mL of octanol and 2.5 mL of phosphate buffer solution (pH 7.4). The test tube was mixed by vortex for 2 minutes and then centrifuged for 2 minutes to fully separate the aqueous and organic phase. A sample taken from the octanol layer (0.1 mL) and the aqueous layer (1.0 mL) was saved for radioactivity measurement. An additional aliquot of the octanol layer (2.0 mL) was carefully transferred to a new test tube containing 0.5 mL of octanol and 2.5 mL of phosphate buffer solution (pH 7.4). The previous procedure (vortex mixing, centrifugation, sampling, and transfer to the next test tube) was repeated until six sets of aliquot samples had been prepared. The radioactivity of each sample was measured in a well counter (Perkin-Elmer, Waltham, Mass.). The log D of each set of samples was derived by the following equation: log D=log (decay-corrected radioactivity in octanol sample×10/decay-corrected radioactivity in phosphate buffer sample).

[1] = Plasma protein binding assay, baboon plasma; type: in vitro ADME; settings: method derives % unbound, read-out: plasma protein binding (PPB) (converted)
Protocol: An aliquot of radiotracer in saline (10 μL) was added to a sample of baboon plasma (0.8 mL, pooled from two separate animals). The mixture was gently mixed by repeated inversion and incubated for 10 minutes at room temperature. Following incubation a small sample (20 μL) was removed to determine the total radioactivity in the plasma sample (AT; AT=Abound+Aunbound). An additional 0.2 mL of the plasma sample was placed in the upper compartment of a Centrifree tube (Amicon, Inc., Beverly, Mass., USA) and then centrifuged for 10 minutes. The upper part of the Centrifree tube was discarded, and an aliquot (20 μL) from the bottom part of the tube was removed to determine the amount of radioactivity that passed through the membrane (Aunbound). Plasma protein binding was derived by the following equation: % unbound=Aunbound×100/AT.

[2] = Plasma protein binding assay, human plasma; type: in vitro ADME; settings: method derives % unbound, read-out: plasma protein binding (PPB) (converted)
histone deacetylases [3] = test: Rodent PET/CT imaging with [11C]CN133; type: in vivo, rats (Sprague Dawley); settings: for blocking of [11C]CN133 uptake in rat brain after pretreatment: whole brain, 5-minute pretreatment; for [11C]CN133 uptake in peripheral organs/regions of rats after treatment: peripheral organs (heart wall, kidney cortex, spleen)
Protocol: Male Sprague-Dawley rats were utilized in pairs, anesthetized with inhalational isoflurane (Forane) at 3% in a carrier of 2 L/min medical oxygen and maintained at 2% isoflurane for the duration of the scan. The rats were arranged head-to-head in a Triumph Trimodality PET/CT/SPECT scanner (Gamma Medica, Northridge, Calif., USA). Rats were injected standard references or vehicle via a lateral tail vein catheterization at the start of PET acquisition. Dynamic PET acquisition lasted for 60 minutes and was followed by computed tomography (CT) for anatomic coregistration. PET data were reconstructed using a 3D-MLEM method resulting in a full width at half-maximum resolution of 1 mm. Reconstructed images were exported from the scanner in DICOM format along with an anatomic CT for rodent studies. These files were imported to PMOD (PMOD Technologies, Ltd.) and manually coregistered using six degrees of freedom.
(§1) Volumes of interest (VOIs) were drawn manually as spheres in brain regions guided by high resolution CT structural images and summed PET data, with a radius no less than 1 mm to minimize partial volume effects. Time-activity curves (TACs) were exported in terms of decay corrected activity per unit volume at specified time points with gradually increasing intervals. The TACs were expressed as percent injected dose per unit volume for analysis.

histone deacetylases [4] = test: Baboon PET/MR imaging with [11C]CN133; type: in vivo, baboon (Papio anubis); settings: for VT (Ichese MAI), Baseline / VT (Logan Plot), Baseline: [11C]CN133 distribution volume, t*=35 min to 80 min; for changes in vital signs: tracer dose or blocking dose; for blocking of [11C]CN133 uptake in baboon peripheral organs (time-activity curves): heart, spleen, pancreas, CN133 0.5 mg/kg 10-minute pre-treatment, SAHA infusion 5 mg/kg
Protocol: A female Papio Anubis baboon, deprived of food for 12 hours prior to the study, was administered intramuscular ketamine (10 mg/kg) and intubated. For maintenance of anesthesia throughout the study, the baboon was provided 1%-4% isoflurane (Forane) in a mixture of medical oxygen and nitrogen. The baboon was catheterized antecubitally for radiotracer injection and a radial arterial line was placed for metabolite analysis. MR-PET images were acquired in a BiographmMR scanner (Siemens, Munich, Germany), and PET compatible 8-channel coil arrays for non-human primate brain imaging with a PET resolution of 5 mm and field of view of 59.4 cm and 25.8 cm (transaxial and axial, respectively). Dynamic PET image acquisition was initiated followed by administration of the radiotracer in a homogenous solution of 10% ethanol and 90% isotonic saline. An […] sequence began after 30 minutes of the baseline scan for anatomic coregistration. […] Both scans were carried out in the same animal on the same day, separated by 2.5 hours. In both scans, 4-5 mCi of [^11C]CN133 was administered to the baboon. Dynamic data from the PET scans were recorded in list mode and corrected for attenuation. Baboon data were reconstructed using a 3D-OSEM method resulting in a full width at half-maximum resolution of 4 mm.
as §1, with “MR” for “CT”, “4 mm. A common VOI mask was applied” for “1 mm”, “both baboon scans.” for “minimize partial volume effects.”
Arterial samples collected during imaging from the baboon were centrifuged to obtain plasma, which was then removed and placed in an automated gamma counter that was calibrated to the PET scanner. Metabolite analysis was conducted on a custom automated robot fitted with Phenomenex SPE Strata-X 500 mg solid phase extraction cartridges that were primed with ethanol (2 mL) and deionized water (20 mL). Protein precipitation was achieved by addition of plasma (300 μL) to acetonitrile (300 μL), which was centrifuged for 1 minute to obtain protein-free plasma (PFP). 300 μL of PFP/acetonitrile solution was diluted into deionized water (3 mL), loaded onto the C18 cartridge, and removed of polar metabolites with 100% water. Next, a series of extractions were performed using water and acetonitrile in quantities: 95:5, 90:10, 85:15, 80:20, 70:30, 60:40, 30:70 and 100% acetonitrile at a volume of 4 mL. A control experiment was performed before metabolite analysis to determine the retention of the parent compound by injection of a small amount of [^11C]CN133 onto a test series of extraction cartridges. Each sample was counted in a WIZARD2 Automatic Gamma Counter to determine the presence of radiolabeled metabolites.
CN147 blocks ˜40% of [^11C]CN133 binding in NHP whole brain and in cerebellum. Plasma-normalized data were evaluated by volume of interest analysis (VOI) at the whole brain level and at level of the cerebellum. VOI data were then applied to distribution volume (VT) data analysis by two graphical methods using PMOD software, tabulated in Tables A and B below. Logan Plot and Ichese MAI methods were clarified from previous NHP imaging analyses to provide an accurate VT estimate (+/− standard error) from data beginning 35 min after injection of radiotracer (t*=35 min) until the end of the scan (t=80min).

HDAC1 through HDAC9 = test: HDAC inhibition assay, isoform panel; type: biochemical; settings: for IC50 / binding towards HDAC isoforms (in words): HDAC1, HDAC2, HDAC3 and HDAC6
Excerpt: (§2) All histone deacetylases were purchased from BPS Bioscience. […] All the other reagents were purchased from Sigma-Aldrich.

HDAC2 = HDAC2 (Homo sapiens (Human), UniProt Q92769); test: HDAC inhibition assay; type: biochemical
Excerpt: as §2

HDAC1 = HDAC1 (Homo sapiens (Human), UniProt Q13547); test: HDAC inhibition assay; settings: read-out: IC50 HDAC1
Protocol: (§3) All histone deacetylases were purchased from BPS Bioscience. […] All the other reagents were purchased from Sigma-Aldrich. Caliper EZ reader II system was used to collect all data. […] Purified HDACs were incubated with 2 μM carboxyfluorescein (FAM)-labeled acetylated or trifluoroacetylated peptide substrate (Broad Substrate A and B respectively) and test compound for 60 minutes at room temperature, in HDAC assay buffer that contained 50 mM HEPES (pH 7.4), 100 mM KCl, 0.01% BSA and 0.001% Tween-20. […] Substrate and product were separated electrophoretically and fluorescence intensity in the substrate and product peaks was determined and analyzed by Labchip EZ Reader. The reactions were performed in duplicate for each sample. IC50 values were automatically calculated by Origin 8 using 4 Parameter Logistic Model. The percent inhibition was plotted against the compound concentration, and the IC50 value was determined from the logistic dose-response curve fitting by Origin 8.0 software.

HDAC3 = HDAC3 (Homo sapiens (Human), UniProt O15379); test: HDAC inhibition assay; settings: read-out: IC50 HDAC3
Protocol: as §3

HDAC6 = HDAC6 (Homo sapiens (Human), UniProt Q9UBN7); test: HDAC inhibition assay; type: biochemical
Excerpt: as §2

HDAC8 = HDAC8 (Homo sapiens (Human), UniProt Q9BY41); test: HDAC inhibition assay; type: biochemical
Excerpt: as §2

[5] = Off target binding assays; settings: at 100 times its HDAC IC50
cell cultures = test: Efficacy in cell cultures; type: cell-based
HDAC4 = HDAC4 (Homo sapiens (Human), UniProt P56524); test: HDAC inhibition assay; settings: read-out: IC50 HDAC4
Protocol: as §3

HDAC5 = HDAC5 (Homo sapiens (Human), UniProt Q9UQL6); test: HDAC inhibition assay; settings: read-out: IC50 HDAC5
Protocol: as §3

HDAC7 = HDAC7 (Homo sapiens (Human), UniProt Q8WUI4); test: HDAC inhibition assay; settings: read-out: IC50 HDAC7
Protocol: as §3

HDAC9 = HDAC9 (Homo sapiens (Human), UniProt Q9UKV0); test: HDAC inhibition assay; settings: read-out: IC50 HDAC9
Protocol: as §3

HDAC3, sequence (O15379 whole entry): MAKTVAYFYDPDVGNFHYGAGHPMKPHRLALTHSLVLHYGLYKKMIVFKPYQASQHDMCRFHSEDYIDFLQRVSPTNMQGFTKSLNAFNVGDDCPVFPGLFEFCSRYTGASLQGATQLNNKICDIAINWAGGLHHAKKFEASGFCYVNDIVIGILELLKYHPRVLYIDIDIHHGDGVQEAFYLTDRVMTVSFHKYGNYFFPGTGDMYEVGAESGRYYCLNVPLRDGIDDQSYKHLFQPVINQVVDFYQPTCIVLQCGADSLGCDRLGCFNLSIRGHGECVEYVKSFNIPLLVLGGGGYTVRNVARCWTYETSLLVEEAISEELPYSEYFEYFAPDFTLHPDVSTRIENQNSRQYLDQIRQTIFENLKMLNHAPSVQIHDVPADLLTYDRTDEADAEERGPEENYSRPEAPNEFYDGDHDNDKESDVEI
HDAC3, sequence (Q9Y618 395-489 partner): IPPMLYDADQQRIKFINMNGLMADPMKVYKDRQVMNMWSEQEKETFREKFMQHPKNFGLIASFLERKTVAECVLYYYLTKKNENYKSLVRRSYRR
HDAC1, sequence (Q13547 whole entry): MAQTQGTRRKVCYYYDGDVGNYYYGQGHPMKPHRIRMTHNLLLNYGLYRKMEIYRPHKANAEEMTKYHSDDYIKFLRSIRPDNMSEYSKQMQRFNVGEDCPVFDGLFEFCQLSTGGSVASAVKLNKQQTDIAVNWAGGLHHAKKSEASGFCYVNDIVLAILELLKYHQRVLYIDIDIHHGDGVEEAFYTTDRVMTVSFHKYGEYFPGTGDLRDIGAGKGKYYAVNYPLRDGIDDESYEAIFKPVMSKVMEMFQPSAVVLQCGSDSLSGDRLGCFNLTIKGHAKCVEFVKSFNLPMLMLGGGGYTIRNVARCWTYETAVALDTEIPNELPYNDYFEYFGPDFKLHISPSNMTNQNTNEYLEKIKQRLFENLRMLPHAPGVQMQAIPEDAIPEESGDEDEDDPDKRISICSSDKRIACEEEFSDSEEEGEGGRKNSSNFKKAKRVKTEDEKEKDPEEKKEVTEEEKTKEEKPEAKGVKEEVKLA
HDAC6, sequence (Q9UBN7 whole entry): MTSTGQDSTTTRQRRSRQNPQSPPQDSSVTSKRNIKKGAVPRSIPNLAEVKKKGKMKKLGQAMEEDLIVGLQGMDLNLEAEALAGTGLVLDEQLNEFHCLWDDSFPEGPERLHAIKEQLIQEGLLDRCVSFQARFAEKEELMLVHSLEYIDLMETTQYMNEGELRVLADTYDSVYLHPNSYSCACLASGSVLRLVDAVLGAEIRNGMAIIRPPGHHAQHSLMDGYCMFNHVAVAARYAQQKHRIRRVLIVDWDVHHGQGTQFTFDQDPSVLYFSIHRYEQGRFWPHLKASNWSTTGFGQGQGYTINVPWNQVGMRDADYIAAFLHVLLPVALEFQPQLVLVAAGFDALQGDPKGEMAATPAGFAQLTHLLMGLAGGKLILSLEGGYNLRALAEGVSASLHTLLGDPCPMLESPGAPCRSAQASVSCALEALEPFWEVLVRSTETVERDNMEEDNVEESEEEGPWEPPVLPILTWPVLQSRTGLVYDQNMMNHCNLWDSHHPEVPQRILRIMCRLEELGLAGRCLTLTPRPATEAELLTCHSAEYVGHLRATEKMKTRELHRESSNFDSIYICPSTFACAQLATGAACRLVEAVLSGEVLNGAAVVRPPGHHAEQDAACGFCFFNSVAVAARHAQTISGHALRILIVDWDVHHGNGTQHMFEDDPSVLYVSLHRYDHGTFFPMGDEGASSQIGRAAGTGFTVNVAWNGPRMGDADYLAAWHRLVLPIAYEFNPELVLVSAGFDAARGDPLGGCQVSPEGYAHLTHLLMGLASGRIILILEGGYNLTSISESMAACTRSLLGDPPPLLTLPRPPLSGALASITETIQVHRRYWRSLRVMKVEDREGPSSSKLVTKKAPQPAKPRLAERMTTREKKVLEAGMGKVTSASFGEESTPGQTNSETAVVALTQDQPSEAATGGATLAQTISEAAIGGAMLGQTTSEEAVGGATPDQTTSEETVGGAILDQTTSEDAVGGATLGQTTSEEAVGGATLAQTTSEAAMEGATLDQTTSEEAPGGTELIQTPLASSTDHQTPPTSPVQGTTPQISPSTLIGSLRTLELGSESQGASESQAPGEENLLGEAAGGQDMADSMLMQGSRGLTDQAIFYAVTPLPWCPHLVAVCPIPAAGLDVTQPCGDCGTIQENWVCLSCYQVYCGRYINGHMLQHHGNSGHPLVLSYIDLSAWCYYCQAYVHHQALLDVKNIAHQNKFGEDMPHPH
HDAC7, sequence (Q8WUI4 whole entry): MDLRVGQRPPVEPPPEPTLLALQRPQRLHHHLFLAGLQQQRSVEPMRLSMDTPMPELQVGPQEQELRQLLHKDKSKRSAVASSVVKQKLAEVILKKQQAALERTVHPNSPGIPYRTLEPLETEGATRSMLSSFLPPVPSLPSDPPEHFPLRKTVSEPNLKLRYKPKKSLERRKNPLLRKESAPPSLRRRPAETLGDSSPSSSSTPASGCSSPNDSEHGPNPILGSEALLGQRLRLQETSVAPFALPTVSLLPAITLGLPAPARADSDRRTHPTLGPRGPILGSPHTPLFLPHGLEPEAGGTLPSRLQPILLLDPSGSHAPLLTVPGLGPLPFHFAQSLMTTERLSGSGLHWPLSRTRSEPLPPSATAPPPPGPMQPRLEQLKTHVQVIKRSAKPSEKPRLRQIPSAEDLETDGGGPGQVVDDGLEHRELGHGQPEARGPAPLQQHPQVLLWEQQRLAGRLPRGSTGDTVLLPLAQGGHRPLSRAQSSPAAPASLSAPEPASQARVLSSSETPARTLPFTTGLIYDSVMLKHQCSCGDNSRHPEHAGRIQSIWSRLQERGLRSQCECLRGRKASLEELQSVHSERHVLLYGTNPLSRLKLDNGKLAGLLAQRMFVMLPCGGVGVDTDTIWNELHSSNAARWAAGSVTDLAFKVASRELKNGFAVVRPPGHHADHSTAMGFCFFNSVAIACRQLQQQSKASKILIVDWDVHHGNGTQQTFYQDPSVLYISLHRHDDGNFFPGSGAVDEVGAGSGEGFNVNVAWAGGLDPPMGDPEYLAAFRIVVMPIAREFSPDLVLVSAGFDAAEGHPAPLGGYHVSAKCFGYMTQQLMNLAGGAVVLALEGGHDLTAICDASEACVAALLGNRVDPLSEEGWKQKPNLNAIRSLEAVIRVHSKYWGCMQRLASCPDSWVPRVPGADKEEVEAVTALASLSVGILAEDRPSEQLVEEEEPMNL
HDAC8, sequence (Q9BY41 whole entry): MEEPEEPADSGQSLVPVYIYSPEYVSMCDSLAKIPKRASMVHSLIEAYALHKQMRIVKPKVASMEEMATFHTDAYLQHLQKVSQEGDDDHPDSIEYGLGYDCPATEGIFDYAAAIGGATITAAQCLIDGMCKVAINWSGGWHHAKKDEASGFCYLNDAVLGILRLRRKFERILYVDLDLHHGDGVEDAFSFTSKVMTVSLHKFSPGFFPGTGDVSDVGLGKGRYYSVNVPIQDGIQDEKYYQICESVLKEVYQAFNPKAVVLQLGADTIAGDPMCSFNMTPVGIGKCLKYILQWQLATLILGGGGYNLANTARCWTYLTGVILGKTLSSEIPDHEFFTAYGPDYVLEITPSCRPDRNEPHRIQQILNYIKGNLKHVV
HDAC5, sequence (Q9UQL6 whole entry): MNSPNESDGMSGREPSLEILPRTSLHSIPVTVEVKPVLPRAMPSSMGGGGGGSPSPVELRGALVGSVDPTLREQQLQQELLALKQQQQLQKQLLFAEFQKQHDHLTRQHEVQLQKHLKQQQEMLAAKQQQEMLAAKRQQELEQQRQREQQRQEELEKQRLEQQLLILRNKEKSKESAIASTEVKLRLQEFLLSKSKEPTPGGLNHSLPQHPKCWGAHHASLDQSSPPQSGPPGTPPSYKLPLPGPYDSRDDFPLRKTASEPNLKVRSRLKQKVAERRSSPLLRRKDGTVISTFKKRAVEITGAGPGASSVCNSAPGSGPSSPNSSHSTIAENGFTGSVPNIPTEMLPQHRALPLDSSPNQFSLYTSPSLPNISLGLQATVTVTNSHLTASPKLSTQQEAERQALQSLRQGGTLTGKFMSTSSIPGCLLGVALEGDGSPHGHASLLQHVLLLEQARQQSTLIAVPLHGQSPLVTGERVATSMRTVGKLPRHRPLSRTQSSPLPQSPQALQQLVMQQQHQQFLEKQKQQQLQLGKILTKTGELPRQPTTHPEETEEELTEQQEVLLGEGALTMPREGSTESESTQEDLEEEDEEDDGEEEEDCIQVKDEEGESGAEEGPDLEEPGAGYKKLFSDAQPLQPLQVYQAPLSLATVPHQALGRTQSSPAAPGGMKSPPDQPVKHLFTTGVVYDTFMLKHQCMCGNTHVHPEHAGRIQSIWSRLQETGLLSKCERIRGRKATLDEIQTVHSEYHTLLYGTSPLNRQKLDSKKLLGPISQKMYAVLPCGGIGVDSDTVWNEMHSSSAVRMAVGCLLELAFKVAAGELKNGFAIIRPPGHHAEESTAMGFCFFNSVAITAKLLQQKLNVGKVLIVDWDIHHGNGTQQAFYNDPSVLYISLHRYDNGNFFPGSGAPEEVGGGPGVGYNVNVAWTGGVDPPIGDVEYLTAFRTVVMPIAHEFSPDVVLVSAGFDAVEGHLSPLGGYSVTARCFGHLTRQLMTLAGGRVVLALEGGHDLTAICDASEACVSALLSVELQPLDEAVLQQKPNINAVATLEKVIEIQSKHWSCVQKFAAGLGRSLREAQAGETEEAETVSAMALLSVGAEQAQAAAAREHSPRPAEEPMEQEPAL

logD (Log D determination; read-out: partition coefficient (Log D)): 2.03
fraction unbound at 10 min [1]: 0.986
fraction unbound at 10 min [2]: 0.945
BBB penetration (histone deacetylases [3]; rats, intravenous, 60 minutes scan): high BBB penetration
VT (Ichese MAI), Baseline (histone deacetylases [4]; Cerebellum VOI): 19.45 ± 7.5
VT (Logan Plot), Baseline (histone deacetylases [4]; Cerebellum VOI): 19.28 ± 3.18
VT (Ichese MAI), Baseline (histone deacetylases [4]; Whole Brain VOI): 14.65 ± 8.48
VT (Logan Plot), Baseline (histone deacetylases [4]; Whole Brain VOI): 14.46 ± 3.83
time of peak radioactivity in the brain after injection (histone deacetylases [4]; baboon): about 1 minute
tracer uptake in peripheral organs (histone deacetylases [4]; baboon heart, kidney, pancreas and spleen): good uptake
IC50 / binding towards HDAC isoforms (in words) (HDAC1 through HDAC9): sub-nanomolar
SMILES: [11CH3]N(Cc1ccc(/C=C/C(=O)NO)cc1)CC12CC3CCC(CC(C3)C1)C2 [[11C]CN133]
blocking of [11C]CN133 uptake in rat brain after pretreatment (histone deacetylases [3]): dose-dependent blocking
changes in vital signs (histone deacetylases [4]; baboon): did not notice any significant changes

SMILES: O=C(CCCCCCC(=O)Nc1ccccc1)NO [SAHA, suberanilohydroxamic acid, reference compound]
[11C]CN133 uptake in peripheral organs/regions of rats after treatment (histone deacetylases [3]): decreased uptake
blocking of [11C]CN133 uptake in rat brain after pretreatment (histone deacetylases [3]): no significant change; also recorded: did not block the brain uptake
blocking of [11C]CN133 uptake in baboon peripheral organs (time-activity curves) (histone deacetylases [4]; kidney): significant blocking

IC50 (HDAC2): 53.7 nM
IC50 (HDAC1): 56.1 nM
IC50 (HDAC3): 7.1 nM
SMILES: O=C(NO)c1ccc(C2=Nc3ccccc3Oc3ccccc32)cc1 [CN54]
[11C]CN133 uptake in peripheral organs/regions of rats after treatment (histone deacetylases [3]): decreased uptake
blocking of [11C]CN133 uptake in rat brain after pretreatment (histone deacetylases [3]): blocked; also recorded: activity blocking

SMILES: CN(Cc1ccc(/C=C/C(=O)NO)cc1)CC12CC3CC(CC(C3)C1)C2 [CN133, (E)-3-(4-((((3r,5r,7r)-adamantan-1-ylmethyl)(methyl)amino)methyl)phenyl)-N-hydroxyacrylamide]
IC50 (HDAC6): 4.1 nM
IC50 (HDAC8): > 15 µM
partition coefficient (Log D) (Log D determination): 2.03
P-glycoprotein interaction (CsA pretreatment study) (histone deacetylases [3]; 30-minute pretreatment of CsA 25 mg/kg): not a Pgp inhibitor
reversibility of binding (histone deacetylases [3]; CN133 1.0 mg/kg i.v. 20 minutes into baseline scan with [11C]CN133): reversible inhibitor; also recorded: rapid washout of radioactivity from brain regions
[11C]CN133 uptake in peripheral organs/regions of rats after treatment (histone deacetylases [3]): decreased
changes in vital signs (histone deacetylases [4]; baboon): did not notice any significant changes
blocking of [11C]CN133 uptake in baboon peripheral organs (time-activity curves) (histone deacetylases [4]; kidney): significant blocking
blocking of [11C]CN133 uptake in baboon brain (histone deacetylases [4]; intravenous, CN133 0.01-1.0 mg/kg, CN147 0.5 mg/kg): reduced the regional radioactivity uptake
off target binding [5]: minimal (if any) off target binding
efficacy in cell cultures (cell cultures): sub-nanomolar
IC50 / binding towards HDAC isoforms (in words) (HDAC1 through HDAC9): low nanomolar; also recorded: sub-nanomolar
selectivity over each of the other HDAC isoforms (HDAC1 through HDAC9; HDAC1-3 and HDAC6 versus other isoforms): greater than 100 fold
IC50 (HDAC1): 0.3 nM
IC50 (HDAC3): 0.6 nM
IC50 (HDAC4): 1970 nM
IC50 (HDAC5): 352 nM
IC50 (HDAC7): > 20 µM
IC50 (HDAC9): > 15 µM

Reference: patent US10188756B2, “Imaging histone deacetylases with a radiotracer using positron emission tomography” (THE GENERAL HOSPITAL CORPORATION, priority 2013, dated 2019)
